In the supplement of paper PMC8671470:

Assays:
Settings in all cases: 72 h
[1] = system: myeloid leukemia patient primary cells Pat.10; experiment: cell viability (% survival relative to DMSO control); higher = less cytotoxic
How it was run: (§1)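 Where an area under the curve appears, it was computed with the drc and PharmacoGx R packages from log-logistic fits. Those fits used four parameters. The underlying viability data came from CellTiter-Glo after 72 h, normalised to DMSO and 10 μM proteasome-inhibitor wells, with thawed, Ficoll-purified AML or CML patient mononuclear cells at 10,000 cells/well in RPMI 1640 with 10% FBS on 384-well plates pre-printed with 70 compounds at five tenfold concentrations (1–10,000 nM) in duplicate.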

[2] = system: myeloid leukemia patient primary cells Pat.11; experiment: as above
How it was run: as §1

[3] = system: myeloid leukemia patient primary cells Pat.12; experiment: as above
How it was run: as §1

[4] = system: myeloid leukemia patient primary cells Pat.13; experiment: as above
How it was run: as §1

[5] = system: myeloid leukemia patient primary cells Pat.14; experiment: as above
How it was run: as §1

[6] = system: myeloid leukemia patient primary cells Pat.15; experiment: as above
How it was run: as §1

[7] = system: myeloid leukemia patient primary cells Pat.1; experiment: as above
How it was run: as §1

[8] = system: myeloid leukemia patient primary cells Pat.2; experiment: as above
How it was run: as §1

[9] = system: myeloid leukemia patient primary cells Pat.3; experiment: as above
How it was run: as §1

[10] = system: myeloid leukemia patient primary cells Pat.4; experiment: as above
How it was run: as §1

[11] = system: myeloid leukemia patient primary cells Pat.5; experiment: as above
How it was run: as §1

[12] = system: myeloid leukemia patient primary cells Pat.6; experiment: as above
How it was run: as §1

[13] = system: myeloid leukemia patient primary cells Pat.7; experiment: as above
How it was run: as §1

[14] = system: myeloid leukemia patient primary cells Pat.8; experiment: as above
How it was run: as §1

[15] = system: myeloid leukemia patient primary cells Pat.9; experiment: as above
How it was run: as §1

[16] = system: KU-812; experiment: cell viability (% survival relative to DMSO control, bortezomib = 0%); higher = less cytotoxic
How it was run: (§2)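 Fifteen myeloid leukaemia cell lines (10 AML, 5 CML) were seeded at a density titrated to the linear growth range into 384-well plates pre-printed with compounds at 1, 10, 100, 1000 or 10000 nM in duplicate. Plates were incubated for 72 h at 37 °C with 5% CO2. Viability was then read by CellTiter-Glo luminescence. Each value is percent survival averaged over the duplicates, with vehicle set to 100% and a 10 µM positive control to 0%.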

[17] = system: MOLM-13; experiment: as above
How it was run: as §2

[18] = system: NOMO-1; experiment: as above
How it was run: as §2

[19] = system: THP-1; experiment: as above
How it was run: as §2

O=C(Cc1cccc(OC(F)(F)F)c1)Nc1ccc(CCCCc2nnc(NC(=O)Cc3ccccn3)s2)nn1 [CB-839]
cell viability ([1]; 1 nM): 52.5%
cell viability ([1]; 10 nM): 47.9%
cell viability ([1]; 100 nM): 24.4%
cell viability ([1]; 1000 nM): 44.8%
cell viability ([1]; 10000 nM): 68.9%
cell viability ([2]; 1 nM): 94.1%
cell viability ([2]; 10 nM): 88.4%
cell viability ([2]; 100 nM): 85.1%
cell viability ([2]; 1000 nM): 74.3%
cell viability ([2]; 10000 nM): 90.7%
cell viability ([3]; 1 nM): 86.8%
cell viability ([3]; 10 nM): 89.6%
cell viability ([3]; 100 nM): 88%
cell viability ([3]; 1000 nM): 80.1%
cell viability ([3]; 10000 nM): 99.4%
cell viability ([4]; 1 nM): 85.3%
cell viability ([4]; 10 nM): 88.9%
cell viability ([4]; 100 nM): 69%
cell viability ([4]; 1000 nM): 64.6%
cell viability ([4]; 10000 nM): 84%
cell viability ([5]; 1 nM): 75.6%
cell viability ([5]; 10 nM): 69.4%
cell viability ([5]; 100 nM): 39.7%
cell viability ([5]; 1000 nM): 41.4%
cell viability ([5]; 10000 nM): 78.6%
cell viability ([6]; 1 nM): 92.4%
cell viability ([6]; 10 nM): 89.2%
cell viability ([6]; 100 nM): 73.2%
cell viability ([6]; 1000 nM): 40.2%
cell viability ([6]; 10000 nM): 36.6%
cell viability ([7]; 1 nM): 84.7%
cell viability ([7]; 10 nM): 81.3%
cell viability ([7]; 100 nM): 46.7%
cell viability ([7]; 1000 nM): 56.4%
cell viability ([7]; 10000 nM): 59.1%
cell viability ([8]; 1 nM): 86.8%
cell viability ([8]; 10 nM): 91.3%
cell viability ([8]; 100 nM): 78.1%
cell viability ([8]; 1000 nM): 87%
cell viability ([8]; 10000 nM): 88.3%
cell viability ([9]; 1 nM): 67.7%
cell viability ([9]; 10 nM): 39.5%
cell viability ([9]; 100 nM): 11.1%
cell viability ([9]; 1000 nM): 9.36%
cell viability ([9]; 10000 nM): 14.5%
cell viability ([10]; 1 nM): 92%
cell viability ([10]; 10 nM): 91.5%
cell viability ([10]; 100 nM): 57.4%
cell viability ([10]; 1000 nM): 61%
cell viability ([10]; 10000 nM): 75.4%
cell viability ([11]; 1 nM): 17.1%
cell viability ([11]; 10 nM): 53.9%
cell viability ([11]; 100 nM): 2.39%
cell viability ([11]; 1000 nM): 5.69%
cell viability ([11]; 10000 nM): 19.5%
cell viability ([12]; 1 nM): 91.7%
cell viability ([12]; 10 nM): 94.9%
cell viability ([12]; 100 nM): 79.1%
cell viability ([12]; 1000 nM): 84.9%
cell viability ([12]; 10000 nM): 90.9%
cell viability ([13]; 1 nM): 58.6%
cell viability ([13]; 10 nM): 74.7%
cell viability ([13]; 100 nM): 6.64%
cell viability ([13]; 1000 nM): 21.2%
cell viability ([13]; 10000 nM): 38.3%
cell viability ([14]; 1 nM): 82.7%
cell viability ([14]; 10 nM): 86.7%
cell viability ([14]; 100 nM): 76.8%
cell viability ([14]; 1000 nM): 87.8%
cell viability ([14]; 10000 nM): 81%
cell viability ([15]; 1 nM): 62.2%
cell viability ([15]; 10 nM): 35.3%
cell viability ([15]; 100 nM): 1.99%
cell viability ([15]; 1000 nM): 7.13%
cell viability ([15]; 10000 nM): 14.1%
cell viability ([16]; 1 nM): 101%
cell viability ([16]; 10 nM): 81.8%
cell viability ([16]; 100 nM): 72.2%
cell viability ([16]; 1000 nM): 67.2%
cell viability ([16]; 10000 nM): 66.4%
cell viability ([17]; 1 nM): 123%
cell viability ([17]; 10 nM): 102%
cell viability ([17]; 100 nM): 116%
cell viability ([17]; 1000 nM): 59.8%
cell viability ([17]; 10000 nM): 73.7%
cell viability ([18]; 1 nM): 103%
cell viability ([18]; 10 nM): 91.4%
cell viability ([18]; 100 nM): 76.5%
cell viability ([18]; 1000 nM): 79.2%
cell viability ([18]; 10000 nM): 68.2%
cell viability ([19]; 1 nM): 99.4%
cell viability ([19]; 10 nM): 96.7%
cell viability ([19]; 100 nM): 88.9%
cell viability ([19]; 1000 nM): 82.9%
cell viability ([19]; 10000 nM): 83.7%

O=C(/C=C/c1cccnc1)NCCCCC1CCN(C(=O)c2ccccc2)CC1 [Daporinad]
cell viability ([1]; 1 nM): 28.5%
cell viability ([1]; 10 nM): 2.87%
cell viability ([1]; 100 nM): < 0%
cell viability ([1]; 1000 nM): 2.87%
cell viability ([1]; 10000 nM): < 0%
cell viability ([2]; 1 nM): 94.7%
cell viability ([2]; 10 nM): 10.9%
cell viability ([2]; 100 nM): 1.05%
cell viability ([2]; 1000 nM): 2.36%
cell viability ([2]; 10000 nM): 0.862%
cell viability ([3]; 1 nM): 91.5%
cell viability ([3]; 10 nM): 32.2%
cell viability ([3]; 100 nM): 8.2%
cell viability ([3]; 1000 nM): 5.73%
cell viability ([3]; 10000 nM): 3.19%
cell viability ([4]; 1 nM): 95%
cell viability ([4]; 10 nM): 34.4%
cell viability ([4]; 100 nM): 9.16%
cell viability ([4]; 1000 nM): 3.22%
cell viability ([4]; 10000 nM): 7.15%
cell viability ([5]; 1 nM): 17.1%
cell viability ([5]; 10 nM): 1.32%
cell viability ([5]; 100 nM): 2.09%
cell viability ([5]; 1000 nM): < 0%
cell viability ([5]; 10000 nM): 0.671%
cell viability ([6]; 1 nM): 80.9%
cell viability ([6]; 10 nM): 24.2%
cell viability ([6]; 100 nM): 0.879%
cell viability ([6]; 1000 nM): 1.32%
cell viability ([6]; 10000 nM): 0.659%
cell viability ([7]; 1 nM): 98.2%
cell viability ([7]; 10 nM): 64.2%
cell viability ([7]; 100 nM): 20.9%
cell viability ([7]; 1000 nM): 16.9%
cell viability ([7]; 10000 nM): 11%
cell viability ([8]; 1 nM): 91.1%
cell viability ([8]; 10 nM): 30.5%
cell viability ([8]; 100 nM): 11.7%
cell viability ([8]; 1000 nM): 9.71%
cell viability ([8]; 10000 nM): 6.63%
cell viability ([9]; 1 nM): 3.7%
cell viability ([9]; 10 nM): 2.72%
cell viability ([9]; 100 nM): 2.93%
cell viability ([9]; 1000 nM): 3.29%
cell viability ([9]; 10000 nM): 2.8%
cell viability ([10]; 1 nM): 38.2%
cell viability ([10]; 10 nM): 3.86%
cell viability ([10]; 100 nM): 2.67%
cell viability ([10]; 1000 nM): 2.08%
cell viability ([10]; 10000 nM): 0.709%
cell viability ([11]; 1 nM): 0.265%
cell viability ([11]; 10 nM): < 0%
cell viability ([11]; 100 nM): 9.08%
cell viability ([11]; 1000 nM): < 0%
cell viability ([11]; 10000 nM): < 0%
cell viability ([12]; 1 nM): 60.3%
cell viability ([12]; 10 nM): 51.7%
cell viability ([12]; 100 nM): 24.6%
cell viability ([12]; 1000 nM): 25.6%
cell viability ([12]; 10000 nM): 19.4%
cell viability ([13]; 1 nM): 6.69%
cell viability ([13]; 10 nM): < 0%
cell viability ([13]; 100 nM): < 0%
cell viability ([13]; 1000 nM): < 0%
cell viability ([13]; 10000 nM): < 0%
cell viability ([14]; 1 nM): 98.3%
cell viability ([14]; 10 nM): 11%
cell viability ([14]; 100 nM): 4.49%
cell viability ([14]; 1000 nM): 10.4%
cell viability ([14]; 10000 nM): 0.503%
cell viability ([15]; 1 nM): 0.773%
cell viability ([15]; 10 nM): < 0%
cell viability ([15]; 100 nM): 0.492%
cell viability ([15]; 1000 nM): 0.773%
cell viability ([15]; 10000 nM): 0.773%
cell viability ([16]; 1 nM): 71.9%
cell viability ([16]; 10 nM): 14.8%
cell viability ([16]; 100 nM): 5.16%
cell viability ([16]; 1000 nM): 5.8%
cell viability ([16]; 10000 nM): 4.77%
cell viability ([17]; 1 nM): 69.1%
cell viability ([17]; 10 nM): 15.7%
cell viability ([17]; 100 nM): 0.0519%
cell viability ([17]; 1000 nM): 0.204%
cell viability ([17]; 10000 nM): -0.318%
cell viability ([18]; 1 nM): 34.5%
cell viability ([18]; 10 nM): 1.36%
cell viability ([18]; 100 nM): 0.217%
cell viability ([18]; 1000 nM): 0.164%
cell viability ([18]; 10000 nM): 0.267%
cell viability ([19]; 1 nM): 85.6%
cell viability ([19]; 10 nM): 120%
cell viability ([19]; 100 nM): 102%
cell viability ([19]; 1000 nM): 104%
cell viability ([19]; 10000 nM): 101%
